Tests used:
4T1 cells = experiment: ROS generation assay; format: cell-based, Mouse; conditions: for intracellular ROS (DCFH-DA fluorescence intensity): 6.25 μM, 6 h
Procedure: Rhein is thought to trigger the generation of ROS inside cells by inhibiting mitochondrial complex II, blocking electron transfer from succinate to ubiquinone, which leads to electron leakage at the flavoprotein site, [32]. Therefore, we investigated the ROS production within 4T1 cells in control, DCA, rhein, R + D and Rhein-DCA groups. […] Then, the cellular superoxide radical anion type of ROS production was further detected using dihydroethidium (DHE) fluorescence dyes after incubation with 4T1 cells. […] The flow cytometry was used to further confirm the types of reactive oxygen species, including singlet oxygen (^1O2) and hydroxyl radicals (·OH). The ^1O2 increased greatly about 2.4-fold compared with the control group, and ·OH increased about 1.4-fold (Figure 5D-E). […] Due to the conjugating of rhein, the more mitochondrial accumulation and enhanced PDK inhibition activity of DCA promoted the energy metabolism to redirect towards OXPHOS, increased the mitochondrial electron flux, and amplified the generation of ROS. Excessive ROS would cause oxidative damage of mitochondria and further frustrate OXPHOS, leading to the effectively suppress for cancer cells.
The generation of intracellular ROS within 4T1 cells was measured with DCFH-DA, BBoxiProbe O28 and BBoxiProbe O68 and evaluated by flow cytometry. 4T1 cells were seeded into 6-well plates at a density of 10 × 10^4 cells per well and cultured at 37 °C for 24 h. The cells were treated with rhein (6.25 μM), DCA (6.25 μM), R + D (6.25 μM + 6.25 μM) and Rhein-DCA (6.25 μM) for another 6 h. Cells were detached from the plates with 0.25% Trypsin-EDTA after washed twice with PBS, flowing staining with DCFH-DA (10 μM), BBoxiProbe O28 (Ex = 516 nm, Em = 606 nm) and BBoxiProbe O68 (Ex = 516 nm, Em = 606 nm) for 20 min at 37 °C in the dark.
The level of intracellular superoxide radical anion in 4T1 cells was analyzed with DHE by confocal microscope. 4T1 cells were seeded into confocal dishes with a density of 10 × 10^4 cells per well and treated with various drugs for 24 h and washed twice with PBS, flowing staining with DHE probe (5 μM) for 30 min at 37 °C in the dark. The cellular nuclei were stained with Hoechst 33342 for 10 min at room temperature. The fluorescent images were observed by confocal microscope.

[1] = Tissue distribution after oral administration; format: in vivo; conditions: 4T1-bearing Balb/c mice, oral 20 mg/kg
Procedure: 4T1-bearing Balb/c mice were orally administered with Rhein-DCA (20 mg/kg), major organs (heart, liver, spleen, lung, kidney) and tumor tissues were harvested at 2, 6, and 24 h after administration. […] The Rhein-DCA conjugate could be absorbed rapidly and broadly distributed in major organs tissue after administration.
4T1-bearing Balb/c mice were orally administered with Rhein-DCA (20 mg/kg), major organs (heart, liver, spleen, lung, kidney) and tumor tissues were harvested and weighed at 2, 6, and 24 h after administration. Each organ was homogenized with sonication in ice bath (power 400 W, the duration of sonication is 3 s, the interval duration of 3 s, total sonication time of 20 min). Centrifuge the homogenate at 13000 G for 10 min at 4°C to obtain the supernatant for HPLC.

[2] = Pharmacokinetic study after oral administration; format: in vivo, Sprague-Dawley (SD) rats; conditions: SD rats, I.G. 20 mg/kg, mean ± S.D., n = 3
Procedure: HPLC was conducted to evaluate the absorption and distribution of Rhein-DCA conjugate in […] after oral administration. Rhein-DCA was orally administered to Sprague-Dawley (SD) rats at 20 mg/kg, and the concentration of the drug in the blood samples was serially measured at predefined time points.
HPLC was used to evaluate the absorption and distribution of Rhein-DCA in […] after oral administration. Rhein-DCA was orally administered to Sprague-Dawley (SD) rats at 20 mg/kg. and the blood samples were serially collected at predefined time points (0.5, 1.5, 2, 3, 4, 5, 6, 8, 10 and 24 h). Centrifuge the blood at 3000 G for 10 min to separate serum, and the serum was mixed with methanol (1:3, v/v), vortexed for 3 min, and centrifuged at 13000 G for 10 min. The supernatant was filtered through a 0.22 µm membrane for HPLC assay. Pharmacokinetic parameters were derived using DAS 2.0 software with non-compartmental analysis (NCA).

[3] = Stability in simulated gastrointestinal environment (HPLC); format: physicochemical; conditions: 37°C, within 2 h
Procedure: The proven oral administration experiences of rhein and DCA validated the feasibility and potential of our research on the oral administration of their derivative, Rhein-DCA [34], [35]. We first evaluated the stability of Rhein-DCA by simulating gastric acid (pH 1.5) and intestinal (pH 6.8) conditions in vitro with HPLC. The stability of the Rhein-DCA was as high as 85% within 2 h, indicating the stable of Rhein-DCA in gastrointestinal environment, and it was capable of being efficiently absorbed via the gastrointestinal tract (Figure S21).
Prepare phosphate buffer solutions at pH 1.5 (gastric simulation) and pH 6.8 (intestinal simulation). Rhein-DCA was added to the buffer and incubated at 37°C. Samples were collected at 0, 2, 4, and 6 h for HPLC analysis. Calculate stability (%) = (Ct / C0) × 100, where Ct and C0 are concentrations at time t h and 0 h, respectively.

O=C(O)c1cc(O)c2c(c1)C(=O)c1cccc(O)c1C2=O [Rhein, 4,5-dihydroxyanthraquinone-2-carboxylic acid]
intracellular ROS (DCFH-DA fluorescence intensity) (4T1 cells; flow cytometry): slight enhancement

O=C(OCCOC(=O)C(Cl)Cl)c1cc(O)c2c(c1)C(=O)c1cccc(O)c1C2=O [Rhein-DCA]
intra-tumoral retention [1]: remaining quantifiable up to 24 h | systemic clearance from major organs by 24 h [1]: extremely completed | Tmax ([1]; mouse, tumor, sampled at 2, 6, 24 h, read-out: time of peak concentration in tumors): 6 h | CL [2]: 37.5 mL/min/kg | Vd [2]: 17.11 ± 8.08 L/kg | AUC(0-inf) ([2]; Sprague-Dawley, rat, serum, po): 8980 ng·h/mL | AUC(0-t) ([2]; Sprague-Dawley, rat, serum, po): 8220 ± 330 ng·h/mL | Cmax ([2]; Sprague-Dawley, rat, serum, po): 2680 ng/mL | Tmax ([2]; Sprague-Dawley, rat, serum, po): 1.5 h | half-life ([2]; Sprague-Dawley, rat, serum, po): 5.54 h | intracellular ROS (DCFH-DA fluorescence intensity) (4T1 cells; flow cytometry): stronger fluorescence signal | superoxide radical anion (DHE fluorescence) (4T1 cells; 24 h, CLSM): remarkable red intensity | ^1O2 increase compared with control group (4T1 cells; flow cytometry): about 2.4 fold | ·OH increase compared with control group (4T1 cells; flow cytometry): about 1.4 fold | stability in simulated gastric acid (pH 1.5) and intestinal (pH 6.8) conditions [3]: 85%
